In patent US10519169B2, “3-(1H-pyrrolo[2,3-C]pyridin-2-yl)-1 H-pyrazolo[4,3-B]pyridines and therapeutic uses thereof” (Samumed, LLC, priority 2015, dated 2019):
pEC50: −log10 of the molar value.

Legend:
[1] = test system: Wnt activity (Sp5-Luc reporter, TCF/LEF binding sites) in SW480 colon carcinoma cells; assay: Wnt activity screening assay, Sp5-Luc reporter gene in SW480 cells; assay type: cell-based; conditions: Homo sapiens; for pEC50: overnight incubation; for inhibition at 10 µM: given for EC50 >10 μM, read-out: percent inhibition at 10 μM
Description: The screening assay for Wnt activity is described as follows. Reporter cell lines can be generated by stably transducing cancer cell lines (e.g., colon cancer) or primary cells (e.g., IEC-6 intestinal cells) with a lentiviral construct that includes a Wnt-responsive promoter driving expression of the firefly luciferase gene.
SW480 colon carcinoma cells were transduced with a lentiviral vector expressing luciferase with a human Sp5 promoter consisting of a sequence of eight TCF/LEF binding sites. SW480 cells stably expressing the Sp5-Luc reporter gene and a hygromycin resistance gene were selected by treatment with 150 μg/mL of hygromycin for 7 days. These stably transduced SW480 cells were expanded in cell culture and used for all further screening activities. Each compound was dissolved in DMSO as a 10 mM stock and used to prepare compound source plates. Serial dilution (1:3, 10-point dose-response curves starting from 10 μM) and compound transfer was performed using the ECHO 550 (Labcyte, Sunnyvale, Calif.) into 384-well white solid bottom assay plates (Greiner Bio-One) with appropriate DMSO backfill for a final DMSO concentration of 0.1%. For Sp5-Luc reporter gene assays, the cells were plated at 4,000 cells/well in 384-well plates with medium containing 1% fetal bovine serum and incubated overnight at 37° C. and 5% CO2. Following incubation, 20 μl of BrightGlo luminescence reagent (Promega) was added to each well of the 384-well assay plates. The plates were placed on an orbital shaker for 2 min and then luminescence was quantified using the Envision (Perkin Elmer) plate reader. Readings were normalized to DMSO only treated cells, and normalized activities were utilized for EC50 calculations using the dose-response log (inhibitor) vs. response-variable slope (four parameters) nonlinear regression feature available in GraphPad Prism 5.0 (or Dotmatics). For EC50 of >10 μM, the percent inhibition at 10 μM is provided.

[2] = test system: primary human fibroblasts derived from IPF patients (LL29 cells) treated with TGF-β1; assay: Inhibition of fibrotic process, αSMA staining in TGF-β1 treated LL29 fibroblasts; assay type: cell-based; conditions: Fibroblast; for pEC50: 96 h, TGF-β1 20 ng/mL, 4 days, % cells positive for αSMA; for inhibition at 10 µM: given for EC50 >10 μM, TGF-β1, αSMA, read-out: percent inhibition at 10 μM
Description: Representative compounds were screened using primary human fibroblasts (derived from IPF patients) treated with TGF-β1 to determine their ability to inhibit the fibrotic process.
Primary human fibroblasts derived from IPF patients (LL29 cells) [^1Xiaoqiu Liu, et. al., “Fibrotic Lung Fibroblasts Show Blunted Inhibition by cAMP Due to Deficient cAMP Response Element-Binding Protein Phosphorylation”, Journal of Pharmacology and Experimental Therapeutics (2005), 315(2), 678-687; ^2Watts, K. L., et. al., “RhoA signaling modulates cyclin D1 expression in human lung fibroblasts; implications for idiopathic pulmonary fibrosis”, Respiratory Research (2006), 7(1), 88] were obtained from American Type Culture Collection (ATCC) and expanded in F12 medium supplemented with 15% Fetal Bovine Serum and Penicillin/Streptomycin.
Each compound was dissolved in DMSO as a 10 mM stock and used to prepare compound source plates. Serial dilution (1:2, 11-point dose-response curves from […] to […]) and compound transfer was performed using the ECHO 550 (Labcyte, Sunnyvale, Calif.) into 384-well clear bottom assay plates (Greiner Bio-One) with appropriate DMSO backfill for a final DMSO concentration of 0.1%. LL29 cells are plated at 1,500 cells/well in 80 μL/well F12 medium supplemented with 1% Fetal Bovine Serum. One hour after addition of the cells, TGF-β1 (Peprotech; 20 ng/mL) was added to the plates to induce fibrosis (ref. 1 and 2 above). Wells treated with TGF-β1 and containing DMSO were used as controls. Cells were incubated at 37° C. and 5% CO2 for 4 days. Following incubation for 4 days, SYTOX green nucleic acid stain (Life Technologies [Thermo Fisher Scientific]) was added to the wells at a final concentration of 1 μM and incubated at room temperature for 30 min. Cells were then fixed using 4% formaldehyde (Electron Microscopy Sciences), washed 3 times with PBS followed by blocking and permeabilization using 3% Bovine Serum Albumin (BSA; Sigma) and 0.3% Triton X-100 (Sigma) in PBS. Cells were then stained with antibody specific to α-smooth muscle actin (aSMA; Abcam) (ref. 1 and 2 above) in 3% Bovine Serum Albumin (BSA; Sigma) and 0.3% Triton X-100 (Sigma) in PBS, and incubated overnight at 4° C. Cells were then washed 3 times with PBS, followed by incubation with Alexa Flor-647 conjugated secondary antibody (Life Technologies [Thermo Fisher Scientific]) and DAPI at room temperature for 1 hour. Cells were then washed 3 times with PBS and plates were sealed for imaging. aSMA staining was imaged by excitation at 630 nm and emission at 665 nm and quantified using the Compartmental Analysis program on the CellInsight CX5 (Thermo Scientific). Dead or apoptotic cells were excluded from analysis based on positive SYTOX green staining. % of total cells positive for aSMA were counted in each well and normalized to the average of 11 wells treated with TGF-β1 on the same plate using Dotmatics' Studies Software. The normalized averages (fold change over untreated) of 3 replicate wells for each compound concentration were used to create dose-responses curves and EC50 values were calculated using non-linear regression curve fit in the Dotmatics' Studies Software. For EC50 of >10 μM, the percent inhibition at 10 μM is provided.

pEC50 [1] | Structure (SMILES) | pEC50 [2] | inhibition at 10 µM [2] | inhibition at 10 µM [1]
5.46 | O=C(Nc1cncc(-c2ccc3[nH]nc(-c4cc5c(-c6ccc(F)cc6)cncc5[nH]4)c3n2)c1)c1ccccc1 [Compound 39, N-(5-(3-(4-(4-Fluorophenyl)-1H-pyrrolo[2,3-c]pyridin-2-yl)-1H-pyrazolo [4,3-b]pyridin-5-yl)pyridin-3-yl)benzamide] | < 5.00 | 39.8% | 
5.92 | Fc1ccccc1-c1cncc2[nH]c(-c3n[nH]c4ccc(-c5cn[nH]c5)nc34)cc12 [Compound 539, 3-(4-(2-Fluorophenyl)-1H-pyrrolo[2,3-c]pyridin-2-yl)-5-(1H-pyrazol-4-yl)-1H-pyrazolo[4,3-b]pyridine] | 5.64 |  | 
6.12 | Fc1ccc(-c2cncc3[nH]c(-c4n[nH]c5ccc(-c6cncc(CN7CCC(F)(F)C7)c6)nc45)cc23)cc1 [Compound 54, 5-(5-((3,3-Difluoropyrrolidin-1-yl)methyl)pyridin-3-yl)-3-(4-(4-fluorophenyl)-1H-pyrrolo[2,3-c]pyridin-2-yl)-1H-pyrazolo[4,3-b]pyridine] | 6.43 |  | 
< 5.00 | CS(=O)(=O)NCc1cc(F)cc(-c2cncc3[nH]c(-c4n[nH]c5ccc(-c6cncnc6)nc45)cc23)c1 [Compound 503, N-(3-Fluoro-5-(2-(5-(pyrimidin-5-yl)-1H-pyrazolo[4,3-b]pyridin-3-yl)-1H-pyrrolo[2,3-c]pyridin-4-yl)benzyl)methane sulfonamide] | 5.66 |  | 46.4%
5.88 | CS(=O)(=O)NCc1cc(F)cc(-c2cncc3[nH]c(-c4n[nH]c5ccc(-c6cncc(CN7CCCCC7)c6)nc45)cc23)c1 [Compound 491, N-(3-Fluoro-5-(2-(5-(5-(piperidin-1-ylmethyl)pyridin-3-yl)-1H-pyrazolo[4,3-b]pyridin-3-yl)-1H-pyrrolo[2,3-c]pyridin-4-yl)benzyl)methanesulfonamide] | 5.91 |  | 
< 5.00 | Fc1cccc(-c2cncc3[nH]c(-c4n[nH]c5ccc(C6CCNCC6)nc45)cc23)c1 [Compound 505, 3-(4-(3-Fluorophenyl)-1H-pyrrolo[2,3-c]pyridin-2-yl)-5-(piperidin-4-yl)-1H-pyrazolo[4,3-b]pyridine] | < 5.00 | 0% | 32.9%
6.59 | Fc1cccc(-c2cncc3[nH]c(-c4n[nH]c5ccc(-c6cccnc6)nc45)cc23)c1 [Compound 4, 3-(4-(3-Fluorophenyl)-1H-pyrrolo[2,3-c]pyridin-2-yl)-5-(pyridin-3-yl)-1H-pyrazolo[4,3-b]pyridine] | 6.57 |  | 
< 5.00 | Nc1cncc(-c2ccc3[nH]nc(-c4cc5c(-c6ccncc6)cncc5[nH]4)c3n2)c1 [Compound 115, 5-(3-(4-(Pyridin-4-yl)-1H-pyrrolo[2,3-c]pyridin-2-yl)-1H-pyrazolo[4,3-b]pyridin-5-yl)pyridin-3-amine] | 5.18 |  | 30.1%
5.44 | CS(=O)(=O)NCc1cc(F)cc(-c2cncc3[nH]c(-c4n[nH]c5ccc(-c6ccccn6)nc45)cc23)c1 [Compound 504, N-(3-Fluoro-5-(2-(5-(pyridin-2-yl)-1H-pyrazolo[4,3-b]pyridin-3-yl)-1H-pyrrolo[2,3-c]pyridin-4-yl)benzyl)methanesulfonamide] | 5.44 |  | 
5.15 | Cn1cc(-c2ccc3[nH]nc(-c4cc5c(-c6cccnc6)cncc5[nH]4)c3n2)cn1 [Compound 556, 5-(1-Methyl-1H-pyrazol-4-yl)-3-(4-(pyridin-3-yl)-1H-pyrrolo[2,3-c]pyridin-2-yl)-1H-pyrazolo[4,3-b]pyridine] | 5.52 |  | 
< 5.00 | Cc1ncc(-c2ccc3[nH]nc(-c4cc5c(-c6ccncc6)cncc5[nH]4)c3n2)n1C [Compound 573, 5-(1,2-Dimethyl-1H-imidazol-5-yl)-3-(4-(pyridin-4-yl)-1H-pyrrolo[2,3-c]pyridin-2-yl)-1H-pyrazolo[4,3-b]pyridine] | 5.66 |  | 43.9%
< 5.00 | O=C(Cc1ccccc1)Nc1cncc(-c2ccc3[nH]nc(-c4cc5c(-c6ccoc6)cncc5[nH]4)c3n2)c1 [Compound 318, N-(5-(3-(4-(Furan-3-yl)-1H-pyrrolo[2,3-c]pyridin-2-yl)-1H-pyrazolo[4,3-b]pyridin-5-yl)pyridin-3-yl)-2-phenylacetamide] | < 5.00 | 35.5% | 0%
< 5.00 | c1ccc(-c2ccc3[nH]nc(-c4cc5ccncc5[nH]4)c3n2)nc1 [Compound 280, 5-(Pyridin-2-yl)-3-(1H-pyrrolo[2,3-c]pyridin-2-yl)-1H-pyrazolo[4,3-b]pyridine] | 5.90 |  | 2.1%
< 5.00 | c1cc(-c2cncc3[nH]c(-c4n[nH]c5ccc(-c6cncc(CN7CCCCC7)c6)nc45)cc23)ccn1 [Compound 127, 5-(5-(Piperidin-1-ylmethyl)pyridin-3-yl)-3-(4-(pyridin-4-yl)-1H-pyrrolo[2,3-c]pyridin-2-yl)-1H-pyrazolo[4,3-b]pyridine] | 5.30 |  | 29.6%
5.58 | O=C(Nc1cncc(-c2ccc3[nH]nc(-c4cc5ccncc5[nH]4)c3n2)c1)C1CCCC1 [Compound 274, N-(5-(3-(1H-Pyrrolo[2,3-c]pyridin-2-yl)-1H-pyrazolo[4,3-b]pyridin-5-yl)pyridin-3-yl)cyclopentanecarboxamide] | 6.18 |  | 
5.41 | FC1(F)CCN(Cc2cncc(-c3ccc4[nH]nc(-c5cc6c(-c7cccnc7)cncc6[nH]5)c4n3)c2)C1 [Compound 110, 5-(5-((3,3-Difluoropyrrolidin-1-yl)methyl)pyridin-3-yl)-3-(4-(pyridin-3-yl)-1H-pyrrolo[2,3-c]pyridin-2-yl)-1H-pyrazolo[4,3-b]pyridine] | 6.48 |  | 
< 5.00 | Cc1ccncc1-c1ccc2[nH]nc(-c3cc4c(-c5ccc(F)cc5)cncc4[nH]3)c2n1 [Compound 33, 3-(4-(4-Fluorophenyl)-1H-pyrrolo[2,3-c]pyridin-2-yl)-5-(4-methylpyridin-3-yl)-1H-pyrazolo[4,3-b]pyridine] | 5.75 |  | 21.5%
< 5.00 | c1cc(-c2cncc3[nH]c(-c4n[nH]c5ccc(-c6cncc(OCCN7CCCC7)c6)nc45)cc23)co1 [Compound 690, 3-(4-(Furan-3-yl)-1H-pyrrolo[2,3-c]pyridin-2-yl)-5-(5-(2-(pyrrolidin-1-yl)ethoxy)pyridin-3-yl)-1H-pyrazolo[4,3-b]pyridine] | < 5.00 | 29.5% | 7.4%
